Laboratory results published in US10894051B2, “Method of treating metastatic cancer in a subject” (City University of Hong Kong, priority 2017, dated 2021).

Tests used:
[1] = system: Fluc-mCherry-expressing 4TO7 cells; assay: metastasis of fat pad injected Fluc-mCherry 4TO7 cells; type: in vivo; settings: fat pad injection; 2.5 mg/kg IP; 4 weeks; normal female mice
Procedure: The anti-metastasis effects of vacuolin-1 in another metastasis model have also been evaluated. With reference to FIG. 7A, Fluc-mCherry-expressing 4TO7 cells were injected into the fat pad of normal female mice followed by IP injections of vacuolin-1 (2.5 mg/kg) 24 hour later. The mice were imaged by the Cri Maestro 2 weekly to assess the tumor progression. Mice were sacrificed after 4 weeks, and the number of tumor colonies in lung was counted.

[2] = system: hLCSCs; assay: matrigel invasion assay; type: cell-based, human
Procedure: (§1) HeLa cells, A549 cells, CNE-1 cells and human liver cancer stem cells (hLCSCs) were incubated and treated with vacuolin-1 at different concentrations, namely 2 μM, 5 μM and 10 μM.

[3] = system: hLCSCs; assay: tumor sphere formation; type: cell-based, human
[4] = system: tfLC3B-expressing LCSCs; assay: metastasis of tail vein injected LCSCs; type: in vivo; settings: 2.5 mg/kg IP 3 times per week; 8 weeks; nude mice
Procedure: With reference to FIG. 3A, briefly, 5×10^5 tfLC3B-expressing LCSCs were injected via tail vein into nude mice. 24 hours after the tail vein injection, intraperitoneal (IP) injection of vacuolin-1 (2.5 mg/kg) were conducted 3 times per week. After 8 weeks, all mice were sacrificed. Lungs were excised, and fixed in the 4% paraformaldehyde in PBS. Metastatic nodules were counted in the excised lungs and hemotoxylin/eosin (H&E) were then performed.

[5] = system: human breast cancer cells CA1a; assay: metastasis of tail vein injected CA1a cells; type: in vivo; settings: 2.5 mg/kg IP 3 times per week; 8 weeks; nude mice
Procedure: Similarly, the anti-metastasis effects of vacuolin-1 in human breast cancer cells CA1a in xenograft mouse models were evaluated. With reference to FIG. 4A, briefly, 5×10^5 Fluc-mCherry-expressing CA1a cells were injected by tail vein into nude mice. 24 hours after the tail vein injection, IP injections of vacuolin-1 (2.5 mg/kg) and DMSO-containing PBS were conducted 3 times per week. The mice where imaged by the Cri Maestro 2 weekly to assess the tumor progression. After 8 weeks, all mice were sacrificed.

[6] = system: LCSCs; assay: xenograft tumor-seeding of vacuolin-1 pretreated LCSCs; type: in vivo, nude mice; settings: for tumor incidence / tumor volume: pretreated 10 μM 48 hours, after 4 weeks
Procedure: Nude mice were divided into 4 control groups and 4 treatment groups, each group having 6 nude mice. With reference to FIG. 2A, LCSCs were pretreated with DMSO or 10 μM vacuolin-1 for 48 hours before injecting to nude mice via subcutaneous injection. After 4 weeks, the tumor incidence in mice was measured to determine whether the pretreatment of vacuolin-1 can inhibit the invasion cancer cells in mice.

[7] = system: Focal adhesion kinase (FAK); assay: phospho-Y397 FAK immunoblot; type: cell-based; settings: phosphor-Y397 FAK immunoblot
Procedure: (§2) Autophagy or endosomal trafficking contributes to the migration and invasion of tumor cells by changing the microtubule dynamics, or presentation of surface proteins, or secretion of extracellular matrix (ECM) proteins. Also, focal adhesion (FA) dynamics is a key process for cell migration. In this regard, the effects of vacuolin-1 on the spatio-temporal regulation of FA dynamics were assessed. Phospho-Y397 FAK immunoblot was used to assess the effects of vacuolin-1 on phosphorylation and dephosphorylation dynamics of FAK. Cells were also treated with nocodazole, followed by nocodazole removal and vacuolin-1 incubation, stained with antibodies against Vinculin and Phalloidiin for FA and stress fiber, respectively.
Consistently, with reference to FIG. 1D, vacuolin-1 treatment of cells abolished phosphorylation and dephosphorylation dynamics of FAK as assessed by the phosphor-Y397 FAK immunoblot analysis.

[8] = system: CNE-1 cells; assay: trans-well migration assay; type: cell-based; settings: 2 μM, 5 μM and 10 μM
Procedure: as §1

[9] = system: HeLa cells; assay: trans-well migration assay; type: cell-based; settings: 2 μM, 5 μM and 10 μM
Procedure: as §1

[10] = system: human liver cancer stem cells (hLCSCs); assay: trans-well migration assay; type: cell-based; settings: 2 μM, 5 μM and 10 μM
Procedure: as §1

[11] = system: A549 cells; assay: trans-well migration assay; type: cell-based; settings: 2 μM, 5 μM and 10 μM
Procedure: as §1

[12] = system: Fluc-mCherry-expressing 4TO7 cells; assay: metastasis of tail vein injected Fluc-mCherry 4TO7 cells; type: in vivo; settings: tail vein injection; 2.5 mg/kg IP; 2 weeks; normal mice
Procedure: Since 4TO7 cells are more metastatic than LCSCs, Fluc-mCherry-expressing 4TO7 cells were injected into normal mice via tail vein injection followed by IP injections of vacuolin-1 (2.5 mg/kg) 24 hour later, as illustrated in FIG. 6A. The mice were imaged by the Cri Maestro 2 weekly to assess the tumor progression. Mice were sacrificed after 2 weeks, and the number of tumor colonies in lung was counted.

[13] = sub-chronic toxicity; type: in vivo; settings: 5 mg/kg daily intraperitoneal; 3 months; mice
Procedure: As for the sub-chronic toxicity of vacuolin-1, 5 mg/kg vacuolin-1 was administered daily to young adult male and female mice via intraperitoneal route for 3 months, and DMSO-containing PBS was administered to another set of male and female mice as a control group. The body weight of the mice was determined every week. […] After the 3 months, organs were excised for histopathology evaluation.

[14] = system: focal adhesion (FA); assay: FA disassembly after nocodazole release (Vinculin staining); type: cell-based
Procedure: as §2
With reference to FIGS. 1E and 1F, cells were treated with nocodazole so as to depolymerize microtubules for inducing and stabilizing FA formation, showing by the puncta staining pattern of Vinculin (green colour), whereas removal of nocodazole led to microtubule regrowth resulting in decreasing the number of FA in a time-dependent manner until the reformation of FAs. […] Focal adhesion kinase (FAK) phosphorylation and dephosphorylation on Y397 is another readout of FA dynamics.

[15] = acute toxicity via oral route; type: in vivo; settings: single dose 250 mg/kg oral
Procedure: In particular, vacuolin-1 was administered at a single dose of 250 mg/kg to young adult male and female mice via oral route, and DMSO-containing PBS was administered to another set of male and female mice via oral route as a control group. […] During the 2 weeks, the body weight was also measured. After the 2 weeks, organs were excised for histopathology evaluation.
Referring to FIG. 8B, all tissues or organs in vacuolin-1 treated mice were normal in histological point of view as compared to control groups.

[16] = system: mouse breast carcinoma 4TO7; assay: metastasis of tail vein injected 4TO7 cells; type: in vivo, normal BALBc mice; settings: 2.5 mg/kg daily IP; BALBc mice
Procedure: To exclude the effects of immunodeficiency (nude mice) on the drug effects, another metastasis tumor model was established by tail vein injection of mouse breast carcinoma 4TO7 into normal BALBc mice followed by daily IP injections of vacuolin-1 (2.5 mg/kg) 24 hour later, as illustrated in FIG. 5A.

[17] = system: cancer cell; assay: colony formation from single cancer cell; type: cell-based; settings: 2 μM, 5 μM and 10 μM
Procedure: as §1

[18] = system: cancer cells; assay: cytotoxicity in vitro; type: cell-based
[19] = 1*10^4 LCSCs injected subcutaneously
[20] = 1*10^5 LCSCs injected subcutaneously
[21] = 1*10^6 LCSCs injected subcutaneously

Ic1cccc(/C=N/Nc2nc(N3CCOCC3)nc(N(c3ccccc3)c3ccccc3)n2)c1 [vacuolin-1]
metastasis of 4TO7 cells [1]: markedly inhibited
cell invasion [2]: significantly inhibited
tumor sphere formation [3]: significantly inhibited
metastasis of LCSCs (tumor nodules in lung, lung histology) [4]: significantly inhibited
metastasis of CA1a cells [5]: significantly inhibited
tumor incidence ([6]; 1*10^3 LCSCs injected subcutaneously): 0/6
tumor incidence [6, 19]: 2/6
tumor volume [6, 19]: (1069 mm^3)
tumor incidence [6, 20]: 2/6
tumor volume [6, 20]: (1184 mm^3)
tumor incidence [6, 21]: 5/6
tumor volume [6, 21]: (1521 mm^3)
tumor-seeding ability of LCSC cells ([6]; vacuolin-1 pretreatment, nude mice): markedly inhibited
phosphorylation and dephosphorylation dynamics of FAK [7]: abolished
cell migration [8]: significantly inhibited
cell migration [9]: significantly inhibited
cell migration [10]: significantly inhibited
cell migration [11]: significantly inhibited
metastasis of 4TO7 cells [12]: markedly inhibited
sub-chronic toxicity [13]: no sub-chronic toxicity
FA disassembly [14]: markedly inhibited
behavior abnormality ([15]; 2 weeks): no signs of behavior abnormality
mouse weight gain ([15]; 2 weeks): no effects
histology of tissues or organs ([15]; after 2 weeks): normal
acute toxicity ([15]; mice): no acute toxicity
anti-metastatic effects on 4TO7 cells (tumor nodules in lungs, lung histology) [16]: striking anti-metastatic effects
size and number of colonies generated from single cancer cell [17]: dramatically reduced
cytotoxicity [18]: no cytotoxicity
